What all share (type): cell-based
In assay [1] the test system is Glioma SNB19VR (MGMT−) (TMZ resistant). Briefly: MTT assay for 7-day toxicity assay. Here is the method: (§1) The cell culture techniques were carried out in a Class II microbiological safety cabinet which was swabbed with 70% IMS in distilled water before each use. Glioma cells were routinely cultured in Costar tissue culture flasks in RPMI 1640 liquid medium (containing 0.3 g/L L-glutamine and 2 g/L sodium bicarbonate) supplemented with 10% heat inactivated FBS (55-59° C.) for 1 hour to denature complement proteins which would otherwise evoke a cellular immune response resulting in cell lysis, 1% non-essential amino acids, 50 μg/mL gentamicin and 400 μg/mL G418 (vector selected reagent). Colorectal and melanoma cells were maintained in RPMI 1640 supplemented with 10% FBS. MRC-5 cells were cultured in EMEM. Cells were grown in a humidified incubator containing 5% CO2 at 37° C. Cells were sub-cultured when growth exceeded approximately 80% confluence, normally twice weekly. The medium was aspirated from the flask and approximately 0.8 mL trypsin-EDTA 1× solution added. The cells were re-incubated at 37° C. until they visibly detached from the flask. The cell suspension was then re-suspended in 5 mL medium and 0.5-1 mL of the cell suspension was transferred to a new flask (25 cm^2) with 7 mL culture medium. The cells were further incubated at 37° C. incubator. Cells were disposed after passage nearly 30 times in order to minimize phenotypic drift. New batches of cells were taken from liquid nitrogen storage by thawing rapidly (37° C. water bath) and re-suspension in a 25 cm^2 flask with 10 mL of culture medium. Two passages were allowed to resume normal growth. For long-term maintenance, viable cells at 60-80% confluence were detached by minimum amount of trypsin/EDTA and re-suspended in sterile filtered freezing medium (95% FBS, 5% DMSO), transferred to sterile cryogenic vials, and frozen overnight at −20° C. followed by −80° C. for 1-2 days and stored in liquid nitrogen for long term storage.
(§2) Most test compounds, including temozolomide, were prepared as stock solution (100 mM) in DMSO and stored at −20° C. for not more than 6 months.
(§3) This assay was first described in Mosmann, T., 1983, “Rapid colorimetric assay for cellular growth and survival: Application to proliferation and cytotoxicity assays”, Journal of Immunological Methods, Vol. 65, Nos. 1-2, pp. 55-63.
(§4) Glioma cell lines, SNB19 and U373, both MGMT transfected (i.e., SNB19M and U373M) and vector controls (i.e., SNB19V and U373V); colorectal carcinoma cell lines, HCT116, HT29, and DLD1; melanoma cell line, SKMEL-28; breast cell line, MCF-7; and normal human fetal lung fibroblast cell line, MRC-5; were harvested at 60-80% confluence—during the logarithmic phase of growth.
(§5) Following harvesting, cells in suspension were gently syringed through a 23 gauge needle to obtain a near-single cell suspension. The desired cell seeding densities were used and added into 96-well plates in 180 μL culture medium if only one test compound was to be added, or 160 μL if two test compounds were to be added in combination, which were allowed to attach at 37° C. (5% CO2) overnight. For the 7 day assay, the cell seeding density for different cell lines was as follows: SNB19V, SNB19M: 650 cells/well; U373V, U373M: 650 cells/well; SNB19VR, U373VR: 650 cells/well; HCT116, DLD-1, SKMEL-28, MRC-5, MCF-7: 400 cells/well.
(§6) The two peripheral lanes were used as blank wells (cell free) and filled with 200 μL of medium in order to minimise medium evaporation from the plate. A separate time zero (T0) plate was set up alongside other plates. Serial dilutions in tissue culture medium of a 100 mM stock of test compound in DMSO were prepared immediately before each assay to ten times the final concentrations required, and then 20 μL was added to each well (200 μL total media per well) to achieve final concentrations of 0.5 μM, 1 μM, 5 μM, 10 μM, 50 μM, 100 μM, 500 μM, and 1000 μM. A minimum of four wells received the same test compound concentration. […]
A general note: Formazan colour is commonly taken as a measure of viable cells.

In assay [2] the test system is Colon HCT116 (MMR mutated). The assay is described as follows: MTT assay for 7-day toxicity assay. Here is the method:
as §1, §2, §3, §4, §5, §6

Assay [3] deals with Normal Human Fetal Lung Fibroblast MRC-5. The assay is described as follows: MTT assay for 7-day toxicity assay. How it is done: as §1, §2, §3, §4, §5, §6
Another assay deals with Colon DLD1. Briefly: MTT assay for 7-day toxicity assay. How it is done:
as §1, §2, §3, §4, §5, §6

For assay [4], the system named is range of other cell lines (e.g., colon, melanoma). Briefly: MTT assay, other cell lines. To be noted: for activity in words: other lines (e.g., colon, melanoma).
Excerpt: as §3, §4, §5
(§7) The two peripheral lanes were used as blank wells (cell free) and filled with 200 μL of medium in order to minimise medium evaporation from the plate. A separate time zero (T0) plate was set up alongside other plates. Serial dilutions in tissue culture medium of a 100 mM stock of test compound in DMSO were prepared immediately before each assay to ten times the final concentrations required, and then 20 μL was added to each well (200 μL total media per well) to achieve final concentrations of 0.5 μM, 1 μM, 5 μM, 10 μM, 50 μM, 100 μM, 500 μM, and 1000 μM. A minimum of four wells received the same test compound concentration. To control wells, including those in the T0 plate, 20 μL of medium was added. Previous assays had been carried out to verify that cell viability was not affected by the amount of DMSO added into the test compound-treated wells. A separate plate treated in the same way, but free of test compound, was used as a measure of cell viability at the time of drug addition (day 0).
(§8) After incubation at 37° C., 5% CO2 for 7 days (or immediately for the day 0 plate), cell viability was quantified using the MTT assay. 50 μL of sterile filtered MIT (3-(4,5-dimethylthiazol-2-yl)-2,5-diphenyltetrazolium bromide) (2 mg/mL in phosphate buffered saline) were added to each well (final concentration 0.4 mg/mL) and the plates were re-incubated for 4 hours to allow metabolic conversion of MTT by dehydrogenases in viable cells to insoluble formazan crystals. The medium and any unconverted MTT was aspirated, 150 μL of DMSO was added to each well, and the plates were shaken on a plate shaker (Stuart Scientific 503) to ensure complete formazan solubilisation.
(§9) The intensity of absorbance is directly proportional to cell viability. A linear relationship exists between cell number and the amount of formazan and so the mean absorbance determined for each well of the same concentration can be used as a quantitative measure of viable cells compared to the controls. A graph of absorbance against drug concentration was plotted and the test compound concentration (GI50) causing 50% inhibition of control cell growth (absorbance increase from day 0) was calculated by interpolation.

The subject of assay [5] is glioma MGMT− and MGMT+ cell lines. Briefly: MTT assay, glioma lines as a whole. To be noted: glioma MGMT− and MGMT+ cell lines.
Excerpt: as §3, §4, §5, §7, §8, §9

Setting [6] is: 168 h, Glioma SNB19VR (MGMT−, TMZ resistant), 7-day MTT, single determinations, read-out: GI50.
Setting [7] is: Colon HCT116 (MMR mutated), 7-day MTT, single determinations, read-out: GI50.
The mark [8] stands for this setting: Homo sapiens, HCT-116, 168 h, Colon HCT116 (MMR mutated), 7-day MTT, single determinations, read-out: GI50.
[9] abbreviates: Homo sapiens, MRC5, 168 h, Normal Human Fetal Lung Fibroblast MRC-5, 7-day MTT, single determinations, read-out: GI50.
Setting [10] is: Homo sapiens, DLD-1, 168 h, Colon DLD1, 7-day MTT, single determinations, read-out: GI50.
[11] abbreviates: Normal Human Fetal Lung Fibroblast MRC-5, 7-day MTT, single determinations, read-out: GI50.
The mark [12] stands for this setting: Glioma SNB19VR (MGMT−, TMZ resistant), 7-day MTT, single determinations, read-out: GI50.
Where [13] appears, read: Glioma SNB19VR (MGMT−) (TMZ resistant), read-out: GI50.
[14] abbreviates: Colon HCT116 (MMR mutated), read-out: GI50.
Setting [15] is: Homo sapiens, HCT-116, Colon HCT116 (MMR mutated), read-out: GI50.
Where [16] appears, read: Homo sapiens, MRC5, Normal Human Fetal Lung Fibroblast MRC-5, read-out: GI50.
Setting [17] is: Normal Human Fetal Lung Fibroblast MRC-5, read-out: GI50.
The mark [18] stands for this setting: Homo sapiens, DLD-1, Colon DLD1, read-out: GI50.

Values joined by “and” are separate entries in the source; they are usually repeats but may differ in a detail not shown here. Equal values may be shown once. Read-outs that look alike come from different tables or passages of the source.

With `C[C@H](c1ccccc1)n1nnc2c(C(N)=O)ncn2c1=O` [BB-001, (R)-3-(-1-Phenylethyl)-8-carbamoylimidazotetrazin-4-one], the GI50 amounted to 46.6 µM in assay [1] (setting [6]); 194 µM in assay [2] (setting [7]); 151 µM in assay [2] (setting [8]); 174 µM in assay [3] (setting [9]); 80.6 µM with Colon DLD1 (setting [10]).
For the molecule `C#CCn1nnc2c(C(N)=O)ncn2c1=O` [EE-001, 3-Propargyl-8-carbamoylimidazotetrazin-4-one], the concentration for 50% growth inhibition (GI50) in assay [1] (setting [6]) was determined as 54.9 µM; in assay [2] (setting [8]) it was 59.9 µM; in assay [3] (setting [9]), 56.1 µM; in assay [3] (setting [11]), 66.6 µM; in the assay on Colon DLD1 (setting [10]), 29.9 µM. Also, the activity in words entry in assay [4] and in assay [5] was “more potent than TMZ” in each case.
On to `CCOC(=O)Cn1nnc2c(C(N)=O)ncn2c1=O` [PX-016], for which the GI50 in assay [1] (setting [6]) was determined as 37.6 µM; in assay [1] (setting [12]), 62 µM; in assay [2] (setting [7]), 66 µM; in assay [2] (setting [8]) it was 65.2 µM; in assay [3] (setting [9]), 109 µM; in assay [3] (setting [11]) it was 197 µM. Moreover, in the assay with Colon DLD1 (setting [10]), the GI50 turned out to be 61.1 µM. Moreover, the activity in words result in assay [5] is “surprising efficacy”.
As for `COCn1nnc2c(C(N)=O)ncn2c1=O` [PX-020], the 50% growth inhibitory concentration (GI50) in assay [1] (setting [13]) is 25.8 µM and 28.9 µM and 27.8 µM and 29.2 µM and 16.8 µM; in assay [2] (setting [14]), 47.4 µM and 52.4 µM and 56.1 µM and 29.5 µM; in assay [2] (setting [15]), 57.4 µM; in assay [3] (setting [16]) it was 61.6 µM; in assay [3] (setting [17]) it was 51.5 µM and 74.1 µM; in the assay with Colon DLD1 (setting [18]), 55.4 µM. Also, the activity in words result in assay [5] was “surprising efficacious”.
As to `C[Si](C)(C)CCOCn1nnc2c(C(N)=O)ncn2c1=O` [PX-021], the GI50 in assay [2] (setting [14]) is 39.8 µM and 36.6 µM and 40.1 µM; in assay [2] (setting [15]) it was 33.6 µM; in assay [3] (setting [16]), 48.6 µM; in assay [3] (setting [17]), 65.4 µM; in the assay on Colon DLD1 (setting [18]) it was 53.7 µM. Besides, in assay [5], the activity in words result is “surprising efficacious”.
Turning to `NC(=O)c1ncn2c(=O)n(CCl)nnc12` [PX-030], the 50% growth inhibitory concentration (GI50) stood at 22.3 µM in assay [2] (setting [15]), 50.9 µM in assay [3] (setting [16]) and 67.2 µM in assay [3] (setting [17]).
Regarding `Cn1nnc2c(C(N)=O)ncn2c1=O` [TMZ, 3-Methyl-4-oxo-3,4-dihydro-imidazo[5,1-d][1,2,3,5]tetrazine-8-carboxylic acid amide, reference compound], the 50% growth inhibitory concentration (GI50) in assay [1] (setting [6]) is 314 µM; in assay [1] (setting [13]), 280 µM; in assay [1] (setting [12]), 251 µM and 275 µM and 282 µM (2×) and 294 µM and 263 µM; in assay [1] (Glioma SNB19VR (MGMT−, TMZ resistant), average of Table 1, read-out: TMZ GI50 Average), 280 µM; in assay [2] (setting [7]) it was 570 µM and 594 µM; in assay [2] (setting [8]), 607 µM. Further, the GI50 in assay [2] (Homo sapiens, HCT-116, Colon HCT116 (MMR mutated), average of Table 1, read-out: TMZ GI50 Average) is 591 µM; in assay [2] (setting [15]), 591 µM; in assay [3] (setting [9]), 441 µM; in assay [3] (Homo sapiens, MRC5, Normal Human Fetal Lung Fibroblast MRC-5, average of Table 1, read-out: TMZ GI50 Average), 449 µM; in assay [3] (setting [16]), 449 µM; in assay [3] (setting [11]), 458 µM. The GI50 with Colon DLD1 (setting [10]) was 435 µM; in the assay with Colon DLD1 (setting [18]) it was 435 µM; in the assay with Colon DLD1 (Homo sapiens, DLD-1, Colon DLD1, average of Table 1, read-out: TMZ GI50 Average) it was 435 µM; in assay [4] (range of other cell lines (Table 1)), 200 to 700 µM. In addition, the activity in words result in assay [5] is “demonstrably more active in the glioma lines which are MGMT−”.
`C[S+]([O-])Cn1nnc2c(C(N)=O)ncn2c1=O` (stereo not shown) [UU-003, 3-Methanesulfinylmethyl-4-oxo-3,4-dihydro-imidazo[5,1-d][1,2,3,5]tetrazine-8-carboxylic acid amide]: the concentration for 50% growth inhibition (GI50) in assay [2] (setting [14]) was 5.3 µM and 5 µM; in assay [2] (setting [15]), 6.7 µM; in assay [3] (setting [16]) it was 56.8 µM; in assay [3] (setting [17]) it was 55.2 µM and 52.1 µM; with Colon DLD1 (Colon DLD1, read-out: GI50), 9.3 µM; with Colon DLD1 (setting [18]), 8.2 µM. The activity in words result in assay [4] and in assay [5] was “surprising efficacy” throughout.

The GI50 is the concentration at which growth is held to half of that of the control.

The values above are taken from patent publication US8450479B2, “3-substituted-4-oxo-3,4-dihydro-imidazo[5,1-d][1,2,3,5-tetrazine-8-carboxylic acid amides and their use” (Pharminox Limited, priority 2007, dated 2013).
